Results: patent publication US5679695A, “Aryl and heteroaryl compounds having anti-retrovirus activity” (The University of Connecticut, priority 1995, dated 1997)
pEC50, pIC50: −log10 of the molar value. “And” between values parts separate entries of the source, which are not always exact repeats. Identical values can stand only once. Like-named read-outs stand apart in the source and are kept apart here.

Columns and labels:
HIV-1 = assay: XTT assay of protection from HIV-1 cytopathic effect, infected, CEM-IW; type: cell-based, Human Immunodeficiency Virus
Experimental: (§1) Another assay for testing the efficacy of the compounds is the procedure* used in the National Cancer Institute's test for agents active against Human Immunodeficiency Virus (HIV). It is designed to detect agents acting at any stage of the virus reproductive cycle. The assay basically involves the killing of T4 lymphocytes by HIV. Small amounts of HIV are added to cells, and a complete cycle of virus reproduction is necessary to obtain the required cell killing. Agents that interact with virions, cells, or virus gene-products to interfere with viral activities will protect cells from cytolysis. The system is automated in several features to accommodate large numbers of candidate agents and is generally designed to detect anti-HIV activity. However, compounds that degenerate, or are rapidly metabolized in the culture conditions may not show activity in this screen. All tests are compared with at least one positive (e.g., AZT-treated) control done at the same time under identical conditions.
(§2) * Weislow. O. W., Kiser, R., Fine, D., Bader, J., Shoemaker, R. H., Boyd, M. R.: New soluble-formazan assay for HIV-1 cytopathic effects: application to high-flux screening of synthetic and natural products for AIDS-antiviral activity. J. Natl. Cancer Inst. 81:577-586, 1989.
(§3) 1. The Candidate agent is dissolved in dimethyl sulfoxide (unless otherwise instructed) then diluted 1:100 in cell culture medium before preparing serial half-log10 dilutions. T4 lymphocytes (CEM cell line) are added and after a brief interval HIV-1 added, resulting in a 1:200 final dilution of the compound. Uninfected cells with the compound serve as a toxicity control, and infected and uninfected cells without compound serve as basic controls.
(§4) 2. Cultures are incubated at 37° in a 5% carbon dioxide atmosphere for 6 days.
(§5) 3. The tetrazolium salt, XTT, is added to all wells, and cultures are incubated to allow formazan color development by viable cells.
(§6) 4. Individual wells are analyzed spectrophotometrically to quantitate formazan production, and in addition are viewed microscopically for detection of viable cells and confirmation of protective activity.
(§7) 5. Drug-treated virus-infected cells are compared with drug-treated noninfected cells and with other appropriate controls (untreated infected and untreated noninfected: cells, drug-containing wells without cells, etc.) on the same plate.
(§8) 6. Data are reviewed in comparison with other tests done at the same time and a determination about activity is made.

HIV [1] = assay: Anti-HIV activity in MT-2; type: cell-based
From the text: (§9) Obviously, there is a structure activity relationship with respect to the efficacy of the compounds of the present invention. Factors that affect the relationship may include steric effects, electronic effects, (electron withdrawing or electron donating ability), resonance effects, hydrophobic,hydrophilic, hydrogen bonding parameters, etc. […] Based on the data, it has been determined that there is a direct correlation between the log (EC50)^-1 and the electronic effect of a substituent (a) or more precisely the sum of the sigma (σ) values. (The greater the electron withdrawing ability of a substituent, the higher the value of σ, while a better electron donating group has a lower value of σ.) There appears to be a direct correlation between log (EC50)^-1 and the Σσ; as the Σσ increases, so does the log (EC50)^-1. The addition of substituents to the diphenyl sulfone will affect the factors discussed hereinabove, thus both the log (EC50)^-1 and the Σσ will be affected. Thus for the diphenyl sulfone derivative [drawing 25] the relation is […]

HIV [2] = assay: Anti-HIV assays (summary statements, structure-activity trends); type: cell-based
From the text: as §9

[3] = XTT toxicity control, uninfected, CEM-IW; type: cell-based; settings: human, cem-iw cells, read-out: Uninfected response
Experimental: as §1, §2, §3, §4, §5, §6, §7, §8

CEM-IW = assay: XTT toxicity control, uninfected, CEM-IW; type: cell-based
Experimental: as §1, §2, §3, §4, §5, §6, §7, §8

[4] = Human immunodeficiency virus 1, CEM-IW, summary table, read-out: CEM-IW EC50
[5] = Human immunodeficiency virus 1, MT-2, summary table, read-out: MT-2 EC50
[6] = Human immunodeficiency virus 1, read-out: MT-2 EC50, M

## O=S(=O)(c1ccccc1)c1ccccn1 [Compound 7, phenyl 2-pyridyl sulfone]
HIV-1; [4]
  pEC50: 3.69
HIV [1]; [5]
  pEC50: 4.12
HIV [2]
  anti-HIV activity (in words): shows anti-HIV activity

## O=[N+]([O-])c1ccccc1S(=O)(=O)c1ccccc1[N+](=O)[O-] [Compound 6, 2,2'-dinitrodiphenyl sulfone]
HIV-1; CEM-IW
  Conclusion: ACTIVE
  TI50 (IC/EC): > 2.05 × 10^+2 and > 1.75 × 10^+2 and > 1.27 × 10^+2 and > 1.62 × 10^+2
HIV-1; CEM-IW, 1.45 × 10^-4 Molar, 145 µM
  Infected response: 94.22% of Control and 83.35% of Control and 80.76% of Control
HIV-1; CEM-IW, 1.45 × 10^-5 Molar, 14.5 µM
  Infected response: 100.31% of Control and 95.03% of Control and 82.49% of Control and 79.91% of Control
HIV-1; CEM-IW, 1.45 × 10^-6 Molar, 1.45 µM
  Infected response: 86.23% of Control and 82.50% of Control and 62.75% of Control and 68.40% of Control
HIV-1; CEM-IW, 4.58 × 10^-5 Molar, 45.8 µM
  Infected response: 95.59% of Control and 83.75% of Control and 82.81% of Control
HIV-1; CEM-IW, 4.59 × 10^-6 Molar, 4.59 µM
  Infected response: 92.81% of Control and 84.87% of Control and 80.73% of Control
HIV-1; CEM-IW, 4.60 × 10^-7 Molar, 0.46 µM
  Infected response: 29.70% of Control and 24.44% of Control and 37.65% of Control
HIV-1; CEM-IW, infected, read-out: EC50
  pEC50: 6.08 and 5.94 and 6.05
HIV-1; Human immunodeficiency virus 1, CEM-IW, 1.45 × 10^-4 Molar, read-out: Infected response
  viability at 145 µM: 97.4%
HIV-1; Human immunodeficiency virus 1, CEM-IW, 4.58 × 10^-5 Molar, read-out: Infected response
  viability at 45.8 µM: 99%
HIV-1; Human immunodeficiency virus 1, CEM-IW, 4.59 × 10^-6 Molar, read-out: Infected response
  viability at 4.59 µM: 94%
HIV-1; Human immunodeficiency virus 1, CEM-IW, 4.60 × 10^-7 Molar, read-out: Infected response
  viability at 0.46 µM: 42%
HIV-1; Human immunodeficiency virus 1, CEM-IW, infected, read-out: EC50
  pEC50: 6.15
HIV-1; Human immunodeficiency virus 1, read-out: CEM-IW EC50, M, CEM-IW, summary table
  pEC50: 5.26
[3]; 1.45 × 10^-5 Molar
  viability at 14.5 µM: 92.5%
[3]; 1.45 × 10^-6 Molar
  viability at 1.45 µM: 87.1%
[3]; 4.59 × 10^-6 Molar
  viability at 4.59 µM: 90%
CEM-IW; 1.45 × 10^-4 Molar, 145 µM
  Uninfected response: 109.82% of Control and 97.75% of Control and 89.72% of Control and 104.62% of Control
CEM-IW; 1.45 × 10^-5 Molar, 14.5 µM
  Uninfected response: 97.21% of Control and 84.55% of Control and 104.22% of Control
CEM-IW; 1.45 × 10^-6 Molar, 1.45 µM
  Uninfected response: 93.92% of Control and 100.12% of Control and 105.53% of Control
CEM-IW; 1.45 × 10^-7 Molar, 0.145 µM
  Uninfected response: 80.72% of Control and 98.46% of Control and 109.08% of Control and 105.53% of Control
CEM-IW; 4.58 × 10^-5 Molar, 45.8 µM
  Uninfected response: 100.68% of Control and 106.72% of Control and 80.53% of Control and 105.99% of Control
CEM-IW; 4.59 × 10^-6 Molar, 4.59 µM
  Uninfected response: 96.62% of Control and 82.26% of Control and 98.81% of Control
CEM-IW; 4.60 × 10^-7 Molar, 0.46 µM
  Uninfected response: 74.84% of Control and 97.86% of Control and 88.80% of Control and 107.87% of Control
CEM-IW; 4.60 × 10^-8 Molar, 0.046 µM
  Uninfected response: 88.77% of Control and 104.88% of Control and 105.92% of Control and 111.46% of Control
CEM-IW; uninfected (toxicity)
  pIC50: < 3.84
HIV [1]; [6]
  pEC50: 6.13
HIV [2]
  anti-HIV activity (in words): increased potency

## O=[N+]([O-])c1ccccc1S(=O)(=O)c1ccc(Cl)cc1 [Compound 4, 1-(4-chlorophenylsulfonyl)-2-nitrobenzene]
HIV-1; [4]
  pEC50: 4.37
HIV [1]; [5]
  pEC50: 4.42

## [O-][S+](c1ccccc1)c1ccccc1 [H H H H SO]
HIV [1]; [6]
  pEC50: 3.45

## O=[N+]([O-])c1ccccc1Sc1ccccc1[N+](=O)[O-] [Compound 5]
HIV-1; [4]
  pEC50: 5.10
HIV [1]; [6]
  pEC50: 5.24

## O=S(=O)(c1ccccc1)c1ccccc1 [Compound 3, diphenyl sulfone]
HIV [1]; [6]
  pEC50: 4.11
